Here are results for 43 compounds from ChEMBL document CHEMBL5344424, “3-Hydroxypyridin-4(1H)-one Derivatives as pqs Quorum Sensing Inhibitors Attenuate Virulence and Reduce Antibiotic Resistance in Pseudomonas aeruginosa” (J Med Chem, 2023).

A short description of test [1]: Inhibition of quorum sensing system in Pseudomonas aeruginosa PAO1 assessed as inhibition of pyocyanin production incubated for 24 hrs by optical density based analysis.
Test [2] in a line: Inhibition of quorum sensing system in Pseudomonas aeruginosa PAO1 assessed as inhibition of pyocyanin production at 10 uM incubated for 24 hrs by optical density based analysis relative to control.
The test system of test [3] is Pseudomonas aeruginosa. In words: Synergistic antibacterial activity against Pseudomonas aeruginosa PAO1 infected in Caenorhabditis elegans assessed as worm survival rate at 0.125 ug/ml incubated for 72 hrs in presence of compound 16e by bright-field microscopy relative to control. The format is functional.

As usually defined, the IC50 is the midpoint of a concentration-inhibition curve. On to `Cc1cc(=O)c(O)c(CNCc2cn(-c3ccccc3)nn2)n1C`, for which the half-inhibitory concentration (IC50) in test [1] is 34.7 µM.
As to `CCCCn1cc(CNCc2c(O)c(=O)cc(C)n2C)nn1`, the 50% inhibitory concentration (IC50) in test [1] is greater than 50 µM.
On to `Cc1cc(=O)c(O)c(CNCc2cn(-c3ccccc3C#N)nn2)n1C`, for which the IC50 in test [1] is greater than 50 µM.
`Cc1cc(=O)c(O)c(CNCc2cn(-c3ccc(F)cc3)nn2)n1C`: the 50% inhibitory concentration (IC50) in test [1] was found to be 18.2 µM.
A word on the inhibition: it is the relative decrease from the control value, in per cent. On to `Cc1cc(=O)c(O)c(CNCc2cn(-c3ccccc3OC(F)(F)F)nn2)n1C`, for which, in test [1], the IC50 was determined as 8.1 µM. In addition, the inhibition in test [2] is 50.1%.
Turning to `CCCCCCn1cc(CNCc2c(O)c(=O)cc(C)n2C)nn1`, the IC50 in test [1] was determined as 35.9 µM.
On the same count and under the same terms, in the case of `Cc1cc(=O)c(O)c(CNCc2cn(-c3ccc(N4CCN(C)CC4)cc3)nn2)n1C` it was greater than 50 µM.
Turning to `Cc1cc(=O)c(O)c(CNCc2cn(-c3ccc(C(F)(F)F)cc3)nn2)n1C`, the concentration for half-maximal inhibition (IC50) in test [1] is 7.7 µM. The inhibition in test [2] amounted to 60.1%.
For the compound `Cc1cc(=O)c(O)c(CNCc2cn(-c3ccccc3C(F)(F)F)nn2)n1C`, the IC50 in test [1] came to 9.8 µM. Moreover, the inhibition in test [2] came to 49%.
Consider `CC(=O)c1ccc(-n2cc(CNCc3c(O)c(=O)cc(C)n3C)nn2)cc1`, for which, in test [1], the IC50 turned out to be 37.4 µM.
With `COc1cccc(-n2cc(CNCc3c(O)c(=O)cc(C)n3C)nn2)c1`, the concentration for half-maximal inhibition (IC50) in test [1] came to 42 µM.
In the case of `Cc1ccc(-n2cc(CNCc3c(O)c(=O)cc(C)n3C)nn2)cc1`, the IC50 in test [1] amounted to 8.5 µM. Besides, in test [2], the inhibition is 44.9%.
As to `Cc1cc(=O)c(O)c(CNCC(=O)Nc2ccc(Oc3ccccc3)cc2)n1C`, the IC50 in test [1] stood at 19.4 µM.
As for `Cc1cc(=O)c(O)c(COCc2cn(-c3ccc(Oc4ccccc4)cc3)nn2)n1C`, the half-maximal inhibitory concentration (IC50) in test [1] amounted to 5.1 µM. Moreover, in test [2], the inhibition is 55.1%.
As for `Cc1cc(=O)c(O)c(CNCc2cn(-c3ccccc3[N+](=O)[O-])nn2)n1C`, the IC50 in test [1] is greater than 50 µM.
Take `Cc1cc(=O)c(O)c(CNCc2cn(-c3ccccn3)nn2)n1C`: in test [1], the IC50 was greater than 50 µM.
Take `Cc1cc(=O)c(O)c(CNCc2cn(-c3ccccc3F)nn2)n1C`: the IC50 in test [1] amounted to 18.2 µM.
As for `CC(=O)c1ccccc1-n1cc(CNCc2c(O)c(=O)cc(C)n2C)nn1`, in test [1], the IC50 amounted to 24.8 µM.
`Cc1cc(=O)c(O)c(CNCc2cn(-c3cccc(Cl)c3)nn2)n1C`: the IC50 in test [1] was greater than 50 µM.
Consider `CCCCCCCCCn1cc(CNCc2c(O)c(=O)cc(C)n2C)nn1`, for which the half-maximal inhibitory concentration (IC50) in test [1] is 6.6 µM. In addition, in test [2], the inhibition was 51.2%.
On to `Cc1cc(=O)c(O)c(CNCc2cn(-c3ccc(Cl)cc3)nn2)n1C`, for which the IC50 in test [1] is 15.2 µM.
For the compound `Cn1cc(O)c(=O)cc1CNCc1cn(-c2ccc(Oc3ccccc3)cc2)nn1`, the IC50 in test [1] is 6.1 µM. Besides, the inhibition in test [2] amounted to 58.3%.
For the compound `Cc1cc(=O)c(O)c(CNCc2cn(-c3ccc(Br)cc3)nn2)n1C`, the half-inhibitory concentration (IC50) in test [1] amounted to 46.2 µM.
On to `Cc1cc(=O)c(O)c(CNCc2cn(-c3ccccc3Cl)nn2)n1C`, for which the IC50 in test [1] was 18.4 µM.
Still for that read-out and setting: in the case of `Cc1cc(=O)c(O)c(CNCc2cn(-c3ccc(N(C)C)cc3)nn2)n1C` it was 33.2 µM.
In the case of `COc1ccc(-n2cc(CNCc3c(O)c(=O)cc(C)n3C)nn2)cc1`, in test [1], the IC50 worked out at 6.9 µM. Moreover, in test [2], the inhibition turned out to be 52%.
As for `Cc1cc(=O)c(O)c(CNCc2cn(-c3ccncc3)nn2)n1C`, the half-maximal inhibitory concentration (IC50) in test [1] was greater than 50 µM.
With `Cc1cc(=O)c(O)c(CNCc2cn(-c3ccc(OC(F)(F)F)cc3)nn2)n1C`, the IC50 in test [1] was found to be 4 µM. Also, the inhibition in test [2] was 66.7%.
For `CCCCCCCCn1cc(CNCc2cc(=O)c(O)cn2C)nn1`, the IC50 in test [1] was 21 µM.
On to `COc1ccccc1-n1cc(CNCc2c(O)c(=O)cc(C)n2C)nn1`, for which the IC50 in test [1] is 29.2 µM.
For `Cc1cc(=O)c(O)cn1Cc1cn(-c2ccc(Oc3ccccc3)cc2)nn1`, in test [1], the IC50 was determined as 8.4 µM. In addition, in test [2], the inhibition was 43.3%.
For the compound `CCCCCCCn1cc(CNCc2c(O)c(=O)cc(C)n2C)nn1`, in test [1], the IC50 is 22 µM.
For `CCCCCCCCn1cc(CNCc2c(O)c(=O)cc(C)n2C)nn1`, the 50% inhibitory concentration (IC50) in test [1] was 4.6 µM. The inhibition in test [2] worked out at 64%.
As for `Cn1cc(O)c(=O)cc1CNCc1cn(-c2ccc(OC(F)(F)F)cc2)nn1`, the 50% inhibitory concentration (IC50) in test [1] worked out at 18.9 µM.
For `Cc1cc(=O)c(O)c(CNCc2cn(-c3ccccc3Br)nn2)n1C`, the IC50 in test [1] is 32.2 µM.
As to `Cc1cc(=O)c(O)c(CNCc2cn(-c3cccc(F)c3)nn2)n1C`, the IC50 in test [1] came out at 45.8 µM.
For `COC(=O)c1ccccc1-n1cc(CNCc2c(O)c(=O)cc(C)n2C)nn1`, the IC50 in test [1] came to 28.4 µM.
Still for that read-out and setting: then `Cc1cc(=O)c(O)c(CNCc2cn(-c3ccc(N)cc3)nn2)n1C`, with 44.9 µM; and `COC(=O)c1ccc(-n2cc(CNCc3c(O)c(=O)cc(C)n3C)nn2)cc1`, with 45.8 µM.
With `Cc1cc(=O)c(O)c(CNCc2cn(-c3ccc(C#N)cc3)nn2)n1C`, the half-maximal inhibitory concentration (IC50) in test [1] was greater than 50 µM.
`CCCCCn1cc(CNCc2c(O)c(=O)cc(C)n2C)nn1`: the IC50 in test [1] worked out at 35.3 µM.
`Cc1cc(=O)c(O)c(CNCc2cn(-c3ccc(O)cc3)nn2)n1C`: in test [1], the IC50 was found to be 24 µM.
Regarding `O=C(O)c1cn(C2CC2)c2cc(N3CCNCC3)c(F)cc2c1=O` [CIPROFLOXACIN], the survival at 0.125 µg/mL in test [3] is 35.7%.
